Consider eight molecules from ChEMBL document CHEMBL1201862, “PubChem BioAssay data set” (2004).

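Exposure lasted 48 hours, with cells grown in 96-well plates and compounds tested at five concentrations. GI50 is the concentration that inhibits growth by half.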 The source made the active and inactive calls. Rule as the data show it: active = GI50 up to about 1.1 µM and inactive = higher.

Common to all, as to assay: growth of human tumour cells (NCI), 48 h
In assay [1] the test system is DMS-114.
The subject of assay [2] is DMS-273.
For assay [3], the system named is HL-60.
The subject of assay [4] is HOP-18.
In assay [5] the test system is HOP-62.
Assay [6] has as its system K562.
For assay [7], the system named is KM-20L2.
Assay [8] has as its system M19-MEL.
Assay [9] relates to NCI-H226.
The test system of assay [10] is SK-MEL-28.
Assay [11] relates to SNB-75.
Assay [12] has as its system SNB-78.
The test system of assay [13] is TK-10.
The subject of assay [14] is U-251.
Assay [15] relates to UO-31.

In the case of `CCOC(=O)N1CCc2cc(OC)c(OC)cc2/C1=C\c1ccc(OC)c(OC)c1`, the GI50 in assay [1] was 35.3 µM (inactive); in [2], 25.5 µM (inactive); in assay [3] it was 19.5 µM (inactive); in assay [4], 29.5 µM (inactive); in [5], 41.6 µM (inactive); in assay [6] it was > 10 µM (inactive). The GI50 in assay [7] is 21.2 µM (inactive); in assay [8] it was 26.1 µM (inactive); in assay [9], 23.4 µM (inactive); in assay [10], 33.3 µM (inactive); in assay [11], 27 µM (inactive); in assay [12], 35.7 µM (inactive). The GI50 is 25.2 µM (inactive) in assay [13], 30.3 µM (inactive) in assay [14] and 21 µM (inactive) in assay [15].
Regarding `O=c1c2cc(Br)ccc2nc(CNc2ccccc2)n1-c1ccccc1`, the GI50 in assay [1] was 11.5 µM (inactive); in assay [2], 25.8 µM (inactive); in assay [3] it was 16.8 µM (inactive); in assay [4], 36.7 µM (inactive); in assay [5] it was 30.9 µM (inactive); in [6], 14.6 µM (inactive). Also, the GI50 in [7] is 59 µM (inactive); in assay [8] it was 13.9 µM (inactive); in assay [9] it was 18.5 µM (inactive); in [10], 22.4 µM (inactive); in [11], 20.5 µM (inactive); in [12], 21.1 µM (inactive). Further, the GI50 in assay [13] is 21.7 µM (inactive); in assay [14] it was 15.2 µM (inactive); in [15] it was > 43.9 µM (inactive).
As to `CC1(O)C(C)(O)C(C)(O)C1(C)O` (stereo not given), the GI50 in assay [1], in assay [2], in assay [3], in assay [4], in assay [5] and in assay [6] was > 100 µM (inactive) in each case. Further, the GI50 in [7], in assay [8], in assay [9], in assay [10], in assay [11] and in assay [12] was > 100 µM (inactive) each time. Also, the GI50 in assay [13], in [14] and in [15] was > 100 µM (inactive) each time.
Turning to `CCCCN(CCCC)C(=O)C(=O)CC(=O)/C=C/c1ccccc1`, the GI50 in [1], in assay [2], in assay [3], in assay [4], in assay [5] and in assay [6] was > 100 µM (inactive) each time. Also, the GI50 in assay [7], in [8], in assay [9], in [10], in assay [11] and in assay [12] was > 100 µM (inactive) in each case. Also, the GI50 in assay [13], in assay [14] and in assay [15] was > 100 µM (inactive) in each case.
For the molecule `C[C@]12CCC3c4ccc(OC(=O)c5ccccc5)cc4CC[C@H]3C1CC[C@@H]2OC(=O)C12OC1CCC2=O` (stereo not given in full), the GI50 in assay [1] was 2.6 µM (inactive); in assay [2], 5.01 µM (inactive); in assay [3], 1.9 µM (inactive); in assay [4], 5.71 µM (inactive); in assay [5], 6.21 µM (inactive); in [6], 2.07 µM (inactive). In addition, the GI50 in assay [7] is 5.89 µM (inactive); in assay [8] it was 5.96 µM (inactive); in [9] it was 14.9 µM (inactive); in assay [10], 6.11 µM (inactive); in assay [11], 13.7 µM (inactive); in [12], 6.34 µM (inactive). Also, the GI50 in assay [13] was 18.7 µM (inactive); in assay [14], 2.8 µM (inactive); in assay [15], 5.75 µM (inactive).
As to `CCCCNC(=O)OCC(COc1ccccc1OC)OC(=O)NCCCC` (stereo not given), the GI50 in assay [1] is 78.7 µM (inactive); in assay [2] it was > 100 µM (inactive); in assay [3], > 100 µM (inactive); in assay [4], 39.5 µM (inactive); in assay [5], > 100 µM (inactive); in assay [6], 68.5 µM (inactive). Further, the GI50 was > 100 µM (inactive) in assay [7]; > 100 µM (inactive) in assay [8]; > 100 µM (inactive) in assay [9]; > 100 µM (inactive) in assay [10]; 96.6 µM (inactive) in [11]; > 100 µM (inactive) in assay [12]. For the same molecule, the GI50 in assay [13] is > 100 µM (inactive); in [14] it was > 100 µM (inactive); in [15] it was 63.8 µM (inactive).
Regarding `CCOc1ccc(NC(=O)/C(=C\c2ccc(C)cc2)C(C)=O)cc1`, the GI50 in assay [1] was > 100 µM (inactive); in assay [2], > 100 µM (inactive); in assay [3] it was < 0.01 µM (active); in [4], > 100 µM (inactive); in [5], > 100 µM (inactive); in [6], > 100 µM (inactive). Also, the GI50 in assay [7], in assay [8], in [9], in [10], in assay [11] and in assay [12] was > 100 µM (inactive) in each case. Also, the GI50 in assay [13], in assay [14] and in assay [15] was > 100 µM (inactive) in each case.
Turning to `Cc1c[n+]2c3ccccc3c3ccccc3c2s1.[O-][Cl+3]([O-])([O-])[O-]`, the GI50 in [1] was 2.61 µM (inactive); in assay [2] it was 5.3 µM (inactive); in assay [3] it was 14.2 µM (inactive); in assay [4] it was 40.2 µM (inactive); in assay [5] it was 6.52 µM (inactive); in assay [6] it was 4.29 µM (inactive). Further, the GI50 in assay [7] is 1.33 µM (inactive); in assay [8] it was 4.2 µM (inactive); in assay [9], 0.536 µM (active); in assay [10], 2.25 µM (inactive); in assay [11], 3.31 µM (inactive); in assay [12], 0.721 µM (active). Further, the GI50 in [13] was 1.39 µM (inactive); in [14], 0.368 µM (active); in assay [15], 3.25 µM (inactive).
